# Data published in US10808005B2, “Ligand for orphan nuclear receptor Nur77 and uses thereof” (IXMEDICINE (XIAMEN) BIOLOGICAL TECHNOLOGY COMPANY LIMITED, priority 2016, dated 2020).
# Tests used:
# [1] = system: IκBα and phosphorylated IKKα/β; assay: Immunoblot of IκBα and phosphorylated IKKα/β in TNFα-treated HepG2 cells; type: cell-based; settings: TNFα 20 ng/mL 30 minutes
# From the text: IκBα and phosphorylated IKKα/β in the cells were then detected by WB.
# In addition, HepG2 cells were also applied in the experiment. […] IκBα in the cells was then detected by WB.
# [2] = Acute toxicity model mice, histopathology; type: in vivo
# From the text: The tissue morphologies of the heart, liver, small intestine, white fat and kidney were observed by Histopathological method.
# IκBα [3] = assay: Immunoblot of IκBα in Nur77−/−MEF cells; type: cell-based
# From the text: (§1) The above results were also confirmed by using MEF cells and Nur77−/−MEF cells (i.e., MEF cells not expressing Nur77). […] Subsequently, IκBα in the cells was detected by WB.
# breast cancer = assay: PYVT mice under LFD or HFD feeding, intragastric administration; type: in vivo, WT mice and PYVT mice
# From the text: The above conclusions can be reflected in the size of tumor tissue and the change of body weight of mice.
# IκBα [4] = assay: Immunoblot of IκBα in MEF cells; type: cell-based; settings: MEF cells expressing Nur77
# From the text: as §1
# mTOR signaling pathway = assay: Immunoblot of p-mTOR, p-P70S6K, p-S6 in TNFα-treated starved MDA-MB-231 cells; type: cell-based
# tumors [5] = assay: Tumor inhibition in wild type PYVT mice; type: in vivo; settings: YXY101 5 mg/kg or XS0284 10 mg/kg intragastric, two weeks
# [6] = system: BT474, ZR-75-1, BT549, HCC1937, HS578T, MCF-7, and T47D; assay: Inhibition rate on seven breast cancer cells; type: cell-based; settings: various breast cancer cells, FIG. 11C
# tumors [7] = assay: Tumor inhibition in Nur77-knocked-out PYVT mice; type: in vivo, Nur77-knocked-out type; settings: Nur77-deficient; YXY101 5 mg/kg or XS0284 10 mg/kg intragastric, two weeks
# [8] = single intragastric injection 200 mg/kg
# [9] = single intraperitoneal injection 20 mg/kg
compound,measurement,setting,value
Cc1c(O)c(O)cc2c1C(S(=O)(=O)[O-])C=C1[C@@]2(C)CC[C@@]2(C)[C@@H]3C[C@](C)(C(=O)O)CC[C@]3(C)CC[C@]12C.[Na+] (stereo partly drawn) [XS0284],TNFα-induced degradation of IκBα,[1],capable of inhibiting TNFα-induced degradation of IκBα
same,toxic effect compared with YXY101,[2]; intragastric injection group,weaker toxic effect on the liver and small intestine than YXY101
same,toxicity compared with YXY101,[2]; intraperitoneal injection group,less toxicity to kidney and adipose than YXY101
same,acute toxicity to animals compared with YXY101,[2]; overall,less acute toxicity to animals than YXY101
same,adipose tissue morphology,[2]; [8],"the adipose tissue cells had clear boundaries, and were neatly arranged, and the fiber breakage was reduced"
same,heart tissue morphology,[2]; [8],"relatively clear boundaries, the myocardial fibers were arranged relatively neatly and had obvious boundaries"
same,liver tissue morphology,[2]; [8],the hepatocytes in the liver tissue had obvious boundaries and clear structure
same,small intestine tissue morphology,[2]; [8],"the intestinal tissue had clear boundaries, the cells were plump, the intestinal villi were neatly arranged and had obvious boundaries"
same,adipose tissue morphology,[2]; [9],"the adipose tissue cells had clear boundaries and were arranged neatly, the fiber breakage was reduced"
same,heart tissue morphology,[2]; [9],"relatively clear boundaries, the myocardial fibers were relatively neatly arranged and had obvious boundaries"
same,kidney tissue morphology,[2]; [9],"the kidney tissue had clear glomerular boundaries, the cells were full, and there was a small amount of inflammatory cell infiltration"
same,liver tissue morphology,[2]; [9],the hepatocytes in the liver tissue had obvious boundaries and clear structure
same,TNFα-induced degradation of IκBα,IκBα [3],lost the ability to inhibit IκBα degradation
same,inhibition effect on breast cancer compared with YXY101,breast cancer; high-fat feeding conditions,stronger than that of YXY101
same,inhibitory effect on breast cancer compared with YXY101,breast cancer; low-fat feeding conditions,close to that of YXY101
same,development of breast cancer,breast cancer; low-fat or high-fat feeding conditions,can significantly inhibit the development of breast cancer
same,TNFα-induced degradation of IκBα,IκBα [4],able to inhibit TNFα-induced degradation of IκBα
same,"inhibitory effect on P-mTOR, P-p70S6K and P—S6",mTOR signaling pathway,strong inhibitory effect
same,tumor inhibition (tumor tissue size),tumors [5],effective in inhibiting tumors in wild-type mice
same,inhibitory effects on proliferation compared with YXY101,[6],close or even stronger than that of YXY101
same,tumor inhibition (tumor tissue size),tumors [7],neither of the two compounds could exert an inhibitory effect
